Measured values as given in patent US7820623B2 (priority 2006, dated 2010).
Like-named read-outs stand apart in the source and are kept apart here. Bridge positions count the residues as written; N and C are the ends. Square brackets hold non-standard residues; d marks the D form. Peptide text beside a SMILES is read from it. 1Nal = N[C@@H](Cc1cccc2ccccc12)C(=O)O

Legend:
[1] = system: thapsigargin-induced IFN-g production in human whole blood; type: cell-based
[2] = system: thapsigargin-induced IL-2 production in human whole blood
[3] = read-out: Analogue Activity (IC50) WB/IFNg
[4] = read-out: Analogue Activity (IC50) WB/IL-2

Row | Compound | IC50 ([1]; read-out: Average IC50 IFNg) | IC50 ([2]; read-out: Average IC50 IL-2) | also measured
1 | CC[C@H](C)[C@@H]1NC(=O)[C@H](CCCCN)NC(=O)[C@@H](NC(=O)[C@H](CCCCN)NC(=O)[C@@H](NC(=O)[C@H](CC(N)=O)NC(=O)[C@@H](NC(=O)[C@@H](NC(=O)[C@H](Cc2cccc3ccccc23)NC(=O)CN)[C@@H](C)CC)[C@@H](C)CC)C(C)C)CSSC[C@@H]2NC(=O)[C@H](CCCCN)NC(=O)CNC(=O)[C@H](Cc3ccccc3)NC(=O)[C@H](CCCNC(=N)N)NC(=O)[C@H](CCSC)NC(=O)CNC(=O)[C@H](C)NC(=O)[C@H](CCCCN)NC(=O)[C@H](CCCCN)NC(=O)[C@@H]3CSSC[C@@H](C(=O)N[C@H](C(=O)N4CCC[C@H]4C(=O)N[C@@H](CCCCN)C(=O)O)[C@@H](C)O)NC(=O)[C@H](Cc4c[nH]cn4)NC(=O)[C@H](CSSC[C@H](NC(=O)[C@H](CCC(N)=O)NC(=O)[C@H](CCCNC(=N)N)NC(=O)[C@H](CO)NC1=O)C(=O)N[C@@H](CC(C)C)C(=O)N[C@@H](CCC(=O)O)C(=O)N1CCC[C@H]1C(=O)N3)NC(=O)[C@H](CCCCN)NC(=O)CNC(=O)[C@H](CC(N)=O)NC(=O)[C@H](CCSC)NC2=O [V2Nal] (H-G[1Nal]IINVKCKISRQCLEPCKKAGMRFGKCMNGKCHCTPK-OH; disulfide 8-28, 14-33, 18-35) | – | – | IC50 [1, 3]: 0.524 nM; IC50 [2, 4]: 0.75 nM
2 | CC[C@H](C)[C@@H]1NC(=O)[C@H](CCCCN)NC(=O)[C@@H](NC(=O)[C@H](CCCCN)NC(=O)[C@@H](NC(=O)[C@H](CC(N)=O)NC(=O)[C@@H](NC(=O)[C@@H](NC(=O)[C@H](CCCNC(=N)N)NC(=O)CN)[C@@H](C)CC)[C@@H](C)CC)C(C)C)CSSC[C@@H]2NC(=O)[C@H](CCCCN)NC(=O)CNC(=O)[C@H](Cc3ccccc3)NC(=O)[C@H](CCCNC(=N)N)NC(=O)[C@H](CCSC)NC(=O)CNC(=O)[C@H](C)NC(=O)[C@H](CCCCN)NC(=O)[C@H](CCCCN)NC(=O)[C@@H]3CSSC[C@@H](C(=O)N[C@H](C(=O)N4CCC[C@H]4C(=O)N[C@@H](CCCCN)C(=O)O)[C@@H](C)O)NC(=O)[C@H](Cc4c[nH]cn4)NC(=O)[C@H](CSSC[C@H](NC(=O)[C@H](CCC(N)=O)NC(=O)[C@H](CCCNC(=N)N)NC(=O)[C@H](CO)NC1=O)C(=O)N[C@@H](CC(C)C)C(=O)N[C@@H](CCC(=O)O)C(=O)N1CCC[C@H]1C(=O)N3)NC(=O)[C@H](CCCCN)NC(=O)CNC(=O)[C@H](CC(N)=O)NC(=O)[C@H](CCSC)NC2=O [V2R] (H-GRIINVKCKISRQCLEPCKKAGMRFGKCMNGKCHCTPK-OH; disulfide 8-28, 14-33, 18-35) | – | – | IC50 [1, 3]: 0.986 nM; IC50 [2, 4]: 0.775 nM
3 | CC[C@H](C)[C@@H]1NC(=O)[C@H](CCCCN)NC(=O)[C@@H](NC(=O)[C@H](CCCCN)NC(=O)[C@H](C)NC(=O)[C@H](CC(N)=O)NC(=O)[C@@H](NC(=O)[C@@H](NC(=O)[C@@H](NC(=O)CN)C(C)C)[C@@H](C)CC)[C@@H](C)CC)CSSC[C@@H]2NC(=O)[C@H](CCCCN)NC(=O)CNC(=O)[C@H](Cc3ccccc3)NC(=O)[C@H](CCCNC(=N)N)NC(=O)[C@H](CCSC)NC(=O)CNC(=O)[C@H](C)NC(=O)[C@H](CCCCN)NC(=O)[C@H](CCCCN)NC(=O)[C@@H]3CSSC[C@@H](C(=O)N[C@H](C(=O)N4CCC[C@H]4C(=O)N[C@@H](CCCCN)C(=O)O)[C@@H](C)O)NC(=O)[C@H](Cc4c[nH]cn4)NC(=O)[C@H](CSSC[C@H](NC(=O)[C@H](CCC(N)=O)NC(=O)[C@H](CCCNC(=N)N)NC(=O)[C@H](CO)NC1=O)C(=O)N[C@@H](CC(C)C)C(=O)N[C@@H](CCC(=O)O)C(=O)N1CCC[C@H]1C(=O)N3)NC(=O)[C@H](CCCCN)NC(=O)CNC(=O)[C@H](CC(N)=O)NC(=O)[C@H](CCSC)NC2=O [V6A] (H-GVIINAKCKISRQCLEPCKKAGMRFGKCMNGKCHCTPK-OH; disulfide 8-28, 14-33, 18-35) | – | – | IC50 [1, 3]: 0.0805 nM; IC50 [2, 4]: 0.0733 nM
4 | CC[C@H](C)[C@@H]1NC(=O)[C@H](CCCCN)NC(=O)[C@@H](NC(=O)[C@H](CCCCN)NC(=O)[C@H](CCC(=O)O)NC(=O)[C@H](CC(N)=O)NC(=O)[C@@H](NC(=O)[C@@H](NC(=O)[C@@H](NC(=O)CN)C(C)C)[C@@H](C)CC)[C@@H](C)CC)CSSC[C@@H]2NC(=O)[C@H](CCCCN)NC(=O)CNC(=O)[C@H](Cc3ccccc3)NC(=O)[C@H](CCCNC(=N)N)NC(=O)[C@H](CCSC)NC(=O)CNC(=O)[C@H](C)NC(=O)[C@H](CCCCN)NC(=O)[C@H](CCCCN)NC(=O)[C@@H]3CSSC[C@@H](C(=O)N[C@H](C(=O)N4CCC[C@H]4C(=O)N[C@@H](CCCCN)C(=O)O)[C@@H](C)O)NC(=O)[C@H](Cc4c[nH]cn4)NC(=O)[C@H](CSSC[C@H](NC(=O)[C@H](CCC(N)=O)NC(=O)[C@H](CCCNC(=N)N)NC(=O)[C@H](CO)NC1=O)C(=O)N[C@@H](CC(C)C)C(=O)N[C@@H](CCC(=O)O)C(=O)N1CCC[C@H]1C(=O)N3)NC(=O)[C@H](CCCCN)NC(=O)CNC(=O)[C@H](CC(N)=O)NC(=O)[C@H](CCSC)NC2=O [V6E] (H-GVIINEKCKISRQCLEPCKKAGMRFGKCMNGKCHCTPK-OH; disulfide 8-28, 14-33, 18-35) | – | – | IC50 [1, 3]: 0.068 nM; IC50 [2, 4]: 0.048 nM
5 | CC[C@H](C)[C@@H]1NC(=O)[C@H](CCCCN)NC(=O)[C@@H](NC(=O)[C@H](CCCCN)NC(=O)[C@H](Cc2cccc3ccccc23)NC(=O)[C@H](CC(N)=O)NC(=O)[C@@H](NC(=O)[C@@H](NC(=O)[C@@H](NC(=O)CN)C(C)C)[C@@H](C)CC)[C@@H](C)CC)CSSC[C@@H]2NC(=O)[C@H](CCCCN)NC(=O)CNC(=O)[C@H](Cc3ccccc3)NC(=O)[C@H](CCCNC(=N)N)NC(=O)[C@H](CCSC)NC(=O)CNC(=O)[C@H](C)NC(=O)[C@H](CCCCN)NC(=O)[C@H](CCCCN)NC(=O)[C@@H]3CSSC[C@@H](C(=O)N[C@H](C(=O)N4CCC[C@H]4C(=O)N[C@@H](CCCCN)C(=O)O)[C@@H](C)O)NC(=O)[C@H](Cc4c[nH]cn4)NC(=O)[C@H](CSSC[C@H](NC(=O)[C@H](CCC(N)=O)NC(=O)[C@H](CCCNC(=N)N)NC(=O)[C@H](CO)NC1=O)C(=O)N[C@@H](CC(C)C)C(=O)N[C@@H](CCC(=O)O)C(=O)N1CCC[C@H]1C(=O)N3)NC(=O)[C@H](CCCCN)NC(=O)CNC(=O)[C@H](CC(N)=O)NC(=O)[C@H](CCSC)NC2=O [V6Nal] (H-GVIIN[1Nal]KCKISRQCLEPCKKAGMRFGKCMNGKCHCTPK-OH; disulfide 8-28, 14-33, 18-35) | – | – | IC50 [1, 3]: 2.46 nM; IC50 [2, 4]: 1.78 nM
6 | CC[C@H](C)[C@@H]1NC(=O)[C@H](CCCCN)NC(=O)[C@@H](NC(=O)[C@H](CCCCN)NC(=O)[C@H](CCCNC(=N)N)NC(=O)[C@H](CC(N)=O)NC(=O)[C@@H](NC(=O)[C@@H](NC(=O)[C@@H](NC(=O)CN)C(C)C)[C@@H](C)CC)[C@@H](C)CC)CSSC[C@@H]2NC(=O)[C@H](CCCCN)NC(=O)CNC(=O)[C@H](Cc3ccccc3)NC(=O)[C@H](CCCNC(=N)N)NC(=O)[C@H](CCSC)NC(=O)CNC(=O)[C@H](C)NC(=O)[C@H](CCCCN)NC(=O)[C@H](CCCCN)NC(=O)[C@@H]3CSSC[C@@H](C(=O)N[C@H](C(=O)N4CCC[C@H]4C(=O)N[C@@H](CCCCN)C(=O)O)[C@@H](C)O)NC(=O)[C@H](Cc4c[nH]cn4)NC(=O)[C@H](CSSC[C@H](NC(=O)[C@H](CCC(N)=O)NC(=O)[C@H](CCCNC(=N)N)NC(=O)[C@H](CO)NC1=O)C(=O)N[C@@H](CC(C)C)C(=O)N[C@@H](CCC(=O)O)C(=O)N1CCC[C@H]1C(=O)N3)NC(=O)[C@H](CCCCN)NC(=O)CNC(=O)[C@H](CC(N)=O)NC(=O)[C@H](CCSC)NC2=O [V6R] (H-GVIINRKCKISRQCLEPCKKAGMRFGKCMNGKCHCTPK-OH; disulfide 8-28, 14-33, 18-35) | – | – | IC50 [1, 3]: 0.115 nM; IC50 [2, 4]: 0.084 nM
7 | AVIINVKCKISRQCLEPCKKAGMRFGKCMNGKCHCTPK [Ala-1 (SEQ ID No: 1400)] | 0.119 nM | 0.122 nM | –
8 | E16K, K20D (GVIINVKCKISRQCLKPCKDAGMRFGKCMNGKCHCTPK; Definition of Artificial Sequence: Synthetic peptide) | – | – | IC50 ([1]; read-out: WB/IFNg (IC50)): 1.32 nM; IC50 ([2]; read-out: WB/IL-2 (IC50)): 1.58 nM
9 | E16K, K20D, H34A (GVIINVKCKISRQCLKPCKDAGMRFGKCMNGKCACTPK) | – | – | IC50 ([1]; read-out: WB/IFNg (IC50)): 26.6 nM; IC50 ([2]; read-out: WB/IL-2 (IC50)): 65.5 nM
10 | E16K, K20D, T36Y (GVIINVKCKISRQCLKPCKDAGMRFGKCMNGKCHCYPK; Definition of Artificial Sequence: Synthetic peptide) | – | – | IC50 ([1]; read-out: WB/IFNg (IC50)): 0.923 nM; IC50 ([2]; read-out: WB/IL-2 (IC50)): 0.639 nM
11 | E16K, K20D, des36-38 (GVIINVKCKISRQCLKPCKDAGMRFGKCMNGKCHC) | – | – | IC50 ([1]; read-out: WB/IFNg (IC50)): 6.99 nM; IC50 ([2]; read-out: WB/IL-2 (IC50)): 3.94 nM
12 | GAIINVKCKISRQCLEPCKKAGMRFGKCMNGKCHCTPK [Ala-2 (SEQ ID No: 1401)] | 0.103 nM | 0.0884 nM | –
13 | GGGGS-Osk1 (GGGGSGVIINVKCKISRQCLEPCKKAGMRFGKCMNGKCHCTPK) | – | – | IC50 ([1]; read-out: WB/IFNg (IC50)): 2.2 nM; IC50 ([2]; read-out: WB/IL-2 (IC50)): 1.36 nM
14 | GVAINVKCKISRQCLEPCKKAGMRFGKCMNGKCHCTPK [Ala-3 (SEQ ID No: 1402)] | 0.0992 nM | 0.0883 nM | –
15 | GVIANVKCKISRQCLEPCKKAGMRFGKCMNGKCHCTPK [Ala-4 (SEQ ID No: 1403)] | 0.0873 nM | 0.111 nM | –
16 | GVIIAVKCKISRQCLEPCKKAGMRFGKCMNGKCHCTPK [Ala-5 (SEQ ID No: 1404)] | 0.067 nM | 0.0679 nM | –
17 | GVIINAKCKISRQCLEPCKKAGMRFGKCMNGKCHCTPK [Ala-6 (SEQ ID No: 1405)] | 0.0805 nM | 0.0733 nM | –
18 | GVIINVACKISRQCLEPCKKAGMRFGKCMNGKCHCTPK [Ala-7 (SEQ ID No: 1406)] | 0.0591 nM | 0.0675 nM | –
19 | GVIINVKCAISRQCLEPCKKAGMRFGKCMNGKCHCTPK [Ala-9 (SEQ ID No: 1407)] | 0.0711 nM | 0.0796 nM | –
20 | GVIINVKCKASRQCLEPCKKAGMRFGKCMNGKCHCTPK [Ala-10 (SEQ ID No: 1408)] | 0.0296 nM | 0.05 nM | –
21 | GVIINVKCKISAQCLEPCKKAGMRFGKCMNGKCHCTPK [Ala-12 (SEQ ID No: 1410)] | 0.155 nM | 0.123 nM | –
22 | GVIINVKCKISPQCLKPCKDAGIRFGKCINGKCACTPK | 0.513 nM | 0.514 nM | –
23 | GVIINVKCKISRACLEPCKKAGMRFGKCMNGKCHCTPK [Ala-13 (SEQ ID No: 1411)] | 0.133 nM | 0.148 nM | –
24 | GVIINVKCKISRQCAEPCKKAGMRFGKCMNGKCHCTPK [Ala-15 (SEQ ID No: 1412)] | 0.107 nM | 0.107 nM | –
25 | GVIINVKCKISRQCLAPCKKAGMRFGKCMNGKCHCTPK [Ala-16 (SEQ ID No: 1413)] | 0.101 nM | 0.101 nM | –
